PubChem BioAssay AID1549 (Sanford-Burnham Center for Chemical Genomics, 2009)
The source made the active and inactive calls. The rule behind the calls is not given here.

target: Influenza A virus M2 proton channel (A/TW/4845/1999 H1N1); assay: NMR binding screen, influenza A virus M2 proton channel, Kd (AID 1549); conditions: M2 protein

Structure (SMILES)	Kd
O=C(NS(=O)(=O)c1ccccc1)c1ccccc1F	> 4 mM (inactive)
CN1CCC(NC(=O)C2CCCO2)CC1 (stereo unspecified)	> 4 mM (inactive)
CN1C2CC(OC(=O)[C@H](CO)c3ccccc3)C[C@H]1[C@H]1OC21 (stereo partly specified)	> 4 mM (inactive)
NCc1nnnn1-c1ccccc1	> 4 mM (inactive)
NC(=O)CSc1nc2ccccc2[nH]1	> 4 mM (inactive)
Cc1onc(-c2ccccc2)c1C(=O)O	> 4 mM (inactive)
NC(=O)CSc1nc2ccccc2c(=O)[nH]1	> 4 mM (inactive)
CCn1cnc(C(=O)NC)c1C(=O)NC	> 4 mM (inactive)
Cc1nnc(N2CCN(c3ccccc3)CC2)[nH]c1=O	> 4 mM (inactive)
CSc1ccccc1NC(=O)c1ccoc1C	> 4 mM (inactive)
CCc1nnc(NC(C)=O)s1	> 4 mM (inactive)
CCOc1cc(S(=O)(=O)n2nc(C)cc2C)ccc1F	> 4 mM (inactive)
Cc1cccc(NC(=O)CN2C(=O)CNC2=O)c1	> 4 mM (inactive)
Cc1noc(C)c1C(=O)Nc1ccc2c(c1)CCC2	> 4 mM (inactive)
COCc1nc(-c2cc(Br)ccc2OC)no1	> 4 mM (inactive)
CN1CCN(C2CCN(Cc3ccccc3)CC2)CC1	> 4 mM (inactive)
OCc1ccc(-n2ccnc2)cc1	> 4 mM (inactive)
Cc1cc2nc3c(=O)[nH]c(=O)nc-3n(CC(O)C(O)C(O)CO)c2cc1C (stereo unspecified)	> 4 mM (inactive)
Cc1n[nH]c(=O)nc1N1CCN(c2ccccc2)CC1	> 4 mM (inactive)
c1ccc(C2NCCc3[nH]cnc32)cc1 (stereo unspecified)	> 4 mM (inactive)
c1ccc(CCN2CCN(CCc3ccccn3)CC2)nc1	> 4 mM (inactive)
Cc1nnc2n(c1=O)N=C(c1ccccc1)CS2	> 4 mM (inactive)

Structure (SMILES)	Kd
Nc1cc(F)cc(F)c1	> 4 mM (inactive)
CSc1nc(C)cc(Oc2ccc(=O)n(C)n2)n1	> 4 mM (inactive)
Cc1nn(-c2ccccc2)nc1C(=O)O	> 4 mM (inactive)
CC(CC(=O)NN)C1(O)CCCCC1 (stereo unspecified)	> 4 mM (inactive)
CC(=O)c1ccc(-n2ccnc2)cc1	> 4 mM (inactive)
Nc1ncnc(NCCOCCO)c1[N+](=O)[O-]	> 4 mM (inactive)
NC(=O)c1ccccc1N=Cc1ccco1	> 4 mM (inactive)
NC(c1ccccc1)c1ccccn1 (stereo unspecified)	> 4 mM (inactive)
Cn1nnc2cc(C(=O)N3CCSCC3)ccc21	> 4 mM (inactive)
CCC[C@H]1CC2=C(C[C@@H](CC)CC3=C1C(=O)OC3=O)C(=O)OC2=O	> 4 mM (inactive)
c1ccc(SCc2nc(-c3ccccn3)no2)cc1	> 4 mM (inactive)
CC(=O)c1ccc(NC(=O)c2ocnc2C)cc1	> 4 mM (inactive)
O=CN1CCN(C(=O)c2ccccc2Cl)CC1	> 4 mM (inactive)
Cn1nnc2cc(C(=O)NC3=NCCS3)ccc21	> 4 mM (inactive)
CCOC(=O)c1c(C)nc2cc(C)ccn12	> 4 mM (inactive)
Cc1c(/C=N\n2cnnc2)c2ccccc2n1C	> 4 mM (inactive)
Cc1c(C(=O)O)cnn1-c1ccccc1	> 4 mM (inactive)
CC[C@@]1(O)C[C@H](O[C@H]2C[C@H](N(C)C)[C@H](O)[C@H](C)O2)c2c(cc3c(c2O)C(=O)c2c(O)cccc2C3=O)[C@H]1C(=O)OC	> 4 mM (inactive)
COC(=O)c1ccc(/C=C2/NC(=S)NC2=O)cc1	> 4 mM (inactive)
Nc1ccc(-c2csnn2)cc1	> 4 mM (inactive)
CN1C(=O)/C(=C\c2ccc[nH]2)SC1=S	> 4 mM (inactive)
Cc1[nH]c2ccccc2c1C(=O)CSc1ncn[nH]1	> 4 mM (inactive)

Structure (SMILES)	Kd
COC(=O)[C@@H]1OC(=O)[C@H]2O[C@@]23[C@@]1(C)CCC1[C@@]2(C)CCC(=O)C(C)(C)C2C[C@@H](OC(C)=O)[C@]13C (stereo partly specified)	> 4 mM (inactive)
O=c1c2ccccc2nc(-c2ccco2)n1-c1nccs1	> 4 mM (inactive)
CCC1=Nc2ccccc2-c2nnc(SC)nc2O1	> 4 mM (inactive)
Cc1nc(N)sc1C(=O)N/N=C/c1ccncc1	> 4 mM (inactive)
CC(C)Oc1ccc(NC(N)=O)cc1	> 4 mM (inactive)
CC(=O)c1ccc(NS(=O)(=O)c2cccc(C)c2)cc1	> 4 mM (inactive)
O=C1CSC(=Nc2ccc(C(=O)O)cc2)N1	> 4 mM (inactive)
CCOC(=O)c1csc(C)n1	> 4 mM (inactive)
CC(=O)Oc1ccc(N2C(=O)C3C4C=CC(O4)C3C2=O)cc1 (stereo unspecified)	> 4 mM (inactive)
Nc1ccc(C2SCCS2)cc1	> 4 mM (inactive)
CCP(=O)(CC)c1cccc(C)c1	> 4 mM (inactive)
CCC(C)OC1CCS(=O)(=O)C1 (stereo unspecified)	> 4 mM (inactive)
O=C(O)C12CC3CC(CC(O)(C3)C1)C2	> 4 mM (inactive)
[O-][n+]1onc2c1CCc1c-2nn(-c2ccccc2)[n+]1[O-]	> 4 mM (inactive)
CS(=O)(=O)N1CCN(c2ncccn2)CC1	> 4 mM (inactive)
Cc1csc2nc(=O)c3ccccc3n12	> 4 mM (inactive)
c1ccc(Cn2cccc2)nc1	> 4 mM (inactive)
Cc1nnc(SCC(=O)NCc2ccccc2)[nH]c1=O	> 4 mM (inactive)
N#Cc1ccccc1CSc1ccccn1	> 4 mM (inactive)
CC1(C)Cc2nc3[nH]c(=S)[nH]c(=O)c3cc2CO1	> 4 mM (inactive)
CCOc1ccc(C(=O)c2ccc(OC)c(O)c2O)cc1	> 4 mM (inactive)
Cc1nc(SCC#N)c2c(C)c(C)sc2n1	> 4 mM (inactive)

Structure (SMILES)	Kd
NCc1csc(-c2cccs2)n1	> 4 mM (inactive)
COc1cc(C)c(Cl)cc1S(=O)(=O)N(C)C	> 4 mM (inactive)
Cc1ccc(C)c(C(=O)NCc2ccncc2)c1	> 4 mM (inactive)
O=C(O)C1NCCc2ccccc21 (stereo unspecified)	> 4 mM (inactive)
COc1c2c(cc3c1OCO3)CCN(C)C2	> 4 mM (inactive)
NC(=O)C1CCN(C(=S)c2ccccc2)CC1	> 4 mM (inactive)
O=S(=O)(NCc1ccco1)c1cccc2cccnc12	> 4 mM (inactive)
COc1cc(/C=C2/NC(=S)NC2=O)cc(Cl)c1O	> 4 mM (inactive)
O=C(O)c1c[nH]c2ccccc12	> 4 mM (inactive)
COC1C(O)C(O[C@H]2CC[C@]3(C=O)C4C(CC[C@]3(O)C2)[C@@]2(O)CC[C@H](C3=CC(=O)OC3)[C@@]2(C)C[C@H]4OC(C)=O)OC(C)C1OC(C)=O (stereo partly specified)	> 4 mM (inactive)
COC(=O)CC1=Nc2ccccc2NC(=O)C1	> 4 mM (inactive)
COC(=O)/C(C)=C\CC12OC(C)(C)C3CC(C=C4C(=O)c5c(OC)c6c(c(CC=C(C)C)c5OC431)OC(C)(CCC=C(C)C)C=C6)C2=O (stereo unspecified)	> 4 mM (inactive)
O=C1C=CC(=O)c2c(O)cccc21	> 4 mM (inactive)
c1ccc(-c2csc(Nc3cccnc3)n2)nc1	> 4 mM (inactive)
Cc1nc(-c2ccccc2)sc1C(N)=O	> 4 mM (inactive)
NC(=O)c1ccc(N=Cc2ccc[nH]2)cc1	> 4 mM (inactive)
C/C=C(\C)c1nnc(NC(=O)c2ccco2)s1	> 4 mM (inactive)
CC(C)Nc1nc2n(c(=O)n1)CCN2C(C)C	> 4 mM (inactive)
NC(=O)c1ccc(N2CCCCC2)c(N)c1	> 4 mM (inactive)
CC1(C)C(=O)N(O)C(C)(C)C(=O)N1O	> 4 mM (inactive)
